These results are taken from patent publication US12128035B2, “Activating pyruvate kinase R” (Novo Nordisk Health Care AG, priority 2021, dated 2024).

In one data set the test system is sickle RBCs. Nature of the data set: Phase 1: Lorrca Oxygenscan in SCD patients. It counts as in vivo, human. As to conditions: SCD single 700 mg, Post-dose (24 hours), median (range). The method, then: In this study, SAD/MAD cohorts are randomized (3 to 1) to receive Compound 1 or placebo (P). Compound 1 was evaluated first in 4 healthy SAD cohorts and 4 healthy MAD (14-day dosing period) cohorts. Based on the safety, and PK/PD profile from HS, Compound 1 is then evaluated in 1 SCD SAD cohort and 2 SCD MAD cohorts. Specifically, based on the safety and pharmacokinetic/pharmacodynamics (PK/PD) profile in healthy volunteer studies, Compound 1 is evaluated in patients (pts) with SCD, first in a single dose (SD or SAD) cohort and then in multiple-dose (MD or MAD) cohorts (14-day and 12-week). Safety assessments include AEs, vital signs, ECGs and laboratory parameters. PK/PD blood sampling was performed on Day 1 (SAD/MAD) and Day 14 (MAD) and up to 72 h after the last dose and at the end-of-study visit. PD parameters included 2,3-DPG, ATP, and p50 in all cohorts with additional PD studies (including oxygen scan) performed only in the SCD cohorts. PD parameters included 2,3-DPG, ATP, p50, RBC deformability with controlled deoxygenation and reoxygenation (Lorrca® oxygen scan) and varying osmolality (Lorrca® osmoscan)). […]
Functional evaluation of RBCs was performed using Laser-Optical Rotational Red Cell Analyzer (Lorrca®) technology (RR Mechatronics, Zwaag, The Netherlands). […] In brief, the Oxygenscan allows for the measurement and visualisation of RBC elongation in shear stress in an oxygen gradient, during deoxygenation and re-oxygenation, expressed as the elongation index (EI). […] Evaluated Osmoscan parameters included: EImax; Omin (osmolality at ELmax; hypotonic region), which corresponds to the value of the hypotonic osmolality at which 50% of the cells hemolyse in an osmotic fragility assay and provides information on the initial surface-to-volume ratio of the RBCs; and Ohyper (osmolality corresponding to 50% of the EImax; hypertonic region), which correlates with the initial intracellular viscosity of the cell sample. […]
The effects of a single dose of Compound 1 (700 mg) versus placebo on oxygen scan, oxygen affinity (p50), and osmoscan in SCD patients were evaluated. […]

Data set [1] relates to p50 (PO2 at 50% hemoglobin saturation). As to the kind of experiment: Phase 1: p50 (oxygen affinity) in SCD patients. In kind it is in vivo, human. The method, then: In SCD patients, the mean absolute change in p50, relative to baseline, measured 24 hours after a single 700 mg dose of Compound 1, was −4 mmHg.
With respect to the bar graphs representing the “Untreated” and “Treated” subjects in the SCD MAD cohort, the bar on the left side represents the P50 measured Pre-Dose, and the bar on the right side represents the P50 measured after 14 days of Compound 1, 300 mg once daily. SCD RBCs have higher P50 at baseline compared to HV RBCs. In the MAD cohort in SCD patients (300 mg QD for 14 days), the mean absolute change in p50, relative to baseline, measured 24 hours after the final dose of Compound 1, was −4 mmHg.
The oxygen affinity of RBCs was measured in patient blood using a Hemox Analyzer (TCS Scientific Corp.), an automatic system for the recording of blood oxygen equilibrium curves and related phenomena. The Hemox Analyzer was used according to standard methods to determine the hemoglobin-oxygen dissociation curves for whole blood samples, numerically characterized by the p50, the partial pressure of oxygen at which hemoglobin is 50% saturated. […] In the case of hemoglobin, the wavelength of maximum absorbance is the measuring wavelength (560 nm), while the reference wavelength is at the isosbestic point at (570 nm). The absorbance at the isosbestic point remains unchanged during the deoxygenation process of the hemoglobin, however the measuring wavelength (560 nm) undergoes a drastic change in absorbance. This change is detected by the electronic circuitry and is plotted as the log/ratio change between the two wavelengths. The log/ratio measurement at 560 nm and 570 nm is utilized to measure the optical absorbance change during the deoxygenation of the hemoglobin. Simultaneously with the measurement of the hemoglobin absorbance, the oxygen concentration is directly measured in the sample using a Clark electrode. […]

In data set [2] the test system is panels of receptors, enzymes, ion channels, and kinases. Nature of the data set: Preclinical safety: arrhythmia risk, mutagenicity, nonspecific binding panels. As to conditions: in vitro panels.

As to `O=C([C@H](CO)c1ccccc1)N1CC2=C(C1)CN(S(=O)(=O)c1cnc3c(c1)OCCO3)C2` (single isomer, unassigned) [Compound 1], the “EImin (Oxygenscan)” value in the data set with sickle RBCs (pre-dose 0.193 (0.16, 0.21)) is reported as 0.296 (0.26, 0.38). In addition, the “EImax (Oxygenscan)” value with sickle RBCs (pre-dose 0.445 (0.41, 0.51)) is given as 0.451 (0.42, 0.52). Moreover, in the data set on sickle RBCs (pre-dose 35.4 (27.3, 38.8)), the “POS (Oxygenscan)” value is recorded as 24.0 (17.9, 31.8). In addition, the “mean absolute change in p50, relative to baseline” value in data set [1] (SCD 300 mg QD for 14 days, 24 hours after the final dose) was −4 mmHg; in data set [1] (SCD, 24 hours after single 700 mg dose), −4 mmHg. The “p50 (Oxygen affinity curve)” value in data set [1] (SCD single 700 mg, Post-dose (24 hours), median (range), pre-dose 29.4 (26.1, 32.3)) is recorded as 25.8 (23.3, 26.8). Also, in data set [2], the “preclinical evidence of arrhythmia risk, mutagenicity, nonspecific binding” value was “has not demonstrated any preclinical evidence of arrhythmia risk, mutagenicity, or nonspecific binding activity”.
